One data set deals with VR1 (Homo sapiens, UniProt Q8NER1). The data set can be described thus: Calcium uptake assay, low pH (proton) stimulus. In kind it is cell-based. Set-up: expressed in transfected cells; host or cells: T-REx HEK 293 (Invitrogen), pcDNA5/TO vector. Conditions: HEK293; 0.3 μM compound; low pH agonist; HEK 293 cells expressing hVR1; read-out: Low pH % Inhib. @ 0.3 μM.
Data set [1] in a line: Half-life in human liver microsomes (HLM). In kind it is in vitro ADME. The settings on record: human, human liver microsomes (HLM, HL101), pH 7.4; 1 μM compound, 0.78 mg/mL HLM, 37° C., NADPH. The method, then:
Test compounds (1 μM) were incubated with 3.3 mM MgCl2 and 0.78 mg/mL HLM (HL101) in 100 mM potassium phosphate buffer (pH 7.4) at 37° C. on the 96-deep well plate. The reaction mixture was split into two groups, a non-P450 and a P450 group. NADPH was only added to the reaction mixture of the P450 group. An aliquot of samples of P450 group was collected at 0, 10, 30, and 60 min time point, where 0 min time point indicated the time when NADPH was added into the reaction mixture of P450 group. An aliquot of samples of non-P450 group was collected at −10 and 65 min time point. Collected aliquots were extracted with acetonitrile solution containing an internal standard. The precipitated protein was spun down in centrifuge (2000 rpm, 15 min). The compound concentration in supernatant was measured by LC/MS/MS system.
The half-life value was obtained by plotting the natural logarithm of the peak area ratio of compounds/internal standard versus time. The slope of the line of best fit through the points yields the rate of metabolism (k). This was converted to a half-life value using following equations:
Exemplary compounds of the invention were tested (1 μM), and were incubated with 3.3 mM MgCl2 and 0.78 mg/mL HLM (HL101) in 100 mM potassium phosphate buffer (pH 7.4) at 37° C. on the 96-deep well plate. The reaction mixture was split into two groups, a non-P450 and a P450 group. NADPH was only added to the reaction mixture of the P450 group. An aliquot of samples of the P450 group was collected at 0, 10, 30, and 60 minute time points, where the 0 minute time point indicated the time when NADPH was added into the reaction mixture of the P450 group. An aliquot of samples of the non-P450 group was collected at −10 and 65 minute time points. Collected aliquots were extracted with an acetonitrile solution containing an internal standard. The precipitated protein was spun down in a centrifuge (2000 rpm, 15 rain). The compound concentration in supernatant was measured by LC/MS/MS system. The half-life value (T1/2) was obtained by plotting the natural logarithm of the peak area ratio of compounds/internal standard versus time. The slope of the line of best fit through the points yields the rate of metabolism (k). This was converted to a half-life value using following equations: Half-life=ln 2/k.

Sequence of VR1 (Q8NER1 whole entry): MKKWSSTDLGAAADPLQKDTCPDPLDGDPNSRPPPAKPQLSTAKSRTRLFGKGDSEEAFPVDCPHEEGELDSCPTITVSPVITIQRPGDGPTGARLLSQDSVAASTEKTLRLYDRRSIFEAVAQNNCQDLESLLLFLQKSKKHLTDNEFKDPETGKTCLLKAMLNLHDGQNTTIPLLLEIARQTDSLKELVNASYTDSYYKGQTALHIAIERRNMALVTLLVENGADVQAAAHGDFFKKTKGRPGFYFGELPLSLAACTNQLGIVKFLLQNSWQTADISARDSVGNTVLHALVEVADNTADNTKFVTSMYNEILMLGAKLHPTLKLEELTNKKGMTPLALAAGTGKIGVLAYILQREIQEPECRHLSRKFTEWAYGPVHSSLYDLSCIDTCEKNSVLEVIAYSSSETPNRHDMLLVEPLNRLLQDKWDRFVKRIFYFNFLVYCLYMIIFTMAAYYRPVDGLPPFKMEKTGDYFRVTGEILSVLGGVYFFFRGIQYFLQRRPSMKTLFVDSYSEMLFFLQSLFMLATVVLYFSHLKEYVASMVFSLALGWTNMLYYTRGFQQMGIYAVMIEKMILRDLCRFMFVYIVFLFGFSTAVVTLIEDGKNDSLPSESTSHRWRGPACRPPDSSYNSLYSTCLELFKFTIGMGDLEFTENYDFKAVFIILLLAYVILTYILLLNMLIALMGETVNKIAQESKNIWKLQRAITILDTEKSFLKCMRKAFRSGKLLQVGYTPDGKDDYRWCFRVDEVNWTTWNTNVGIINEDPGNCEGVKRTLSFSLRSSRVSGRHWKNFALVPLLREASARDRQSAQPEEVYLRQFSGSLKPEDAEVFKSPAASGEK

Take `CN1CCCc2ccc(NC(=O)c3ccc(C#CC(C)(C)C)cc3)cc21` [Compound 74]: the inhibition at 0.3 µM at VR1 was 119%. Also, in data set [1], the half-life (usually how long it takes for the measured level to halve) at 1 μM was 1.22 h.
On the same counts, the results for `CN1CCCc2ccc(NC(=O)c3ccc(/C=C/C(F)(F)F)cc3)cc21` [Compound 79] are 98% and 1.33 h.
Consider `C/C(=C\c1ccc(C(=O)Nc2cccc3cnccc23)cc1)C(F)(F)F` [Compound 89], for which, on VR1, the inhibition at 0.3 µM was determined as 92%. The half-life at 1 μM in data set [1] is 0.53 h.
On the same counts, the results for `C/C(=C\c1ccc(C(=O)Nc2ccc3c(c2)OCCN3)cc1)C(F)(F)F` [Compound 93] are 105% and 0.65 h.
Take `O=C(Nc1ccc2c(c1)OCCN2)c1ccc(C#CC2CC2)c(OCC2CC2)c1` [Compound 94]: on VR1, the inhibition at 0.3 µM was 85%. This molecule showed a half-life at 1 μM in data set [1] of 0.48 h.
For the molecule `CC(C)(C)C#Cc1ncc(C(=O)Nc2ccc3c(c2)OCCN3)cn1` [Compound 95], the inhibition at 0.3 µM at VR1 is 102%. Moreover, the half-life at 1 μM in data set [1] is 0.3 h.
On the same counts, the results for `O=C(Nc1ccc2c(c1)OC[C@H](CO)O2)c1ccc(C#CC2CC2)cc1` [Compound 103] are 92% and 0.31 h.
The like results for `O=C(Nc1ccc2c(c1)OC[C@@H](CO)O2)c1ccc(C#CC2CC2)cc1` [Compound 104] were, in that order, 91% and 0.28 h.
Take `O=C(Nc1ccc2c(c1)OCC(CO)O2)c1ccc(C#CC2CCCC2)cc1` (centres unmarked) [Compound 112]: the inhibition at 0.3 µM on VR1 stood at 88%. In data set [1], this molecule had a half-life at 1 μM of 0.8 h.
Consider `COc1cc(/C=C/C(F)(F)F)ccc1C(=O)Nc1ccc2c(c1)OCCN2` [Compound 122], for which the inhibition at 0.3 µM at VR1 worked out at 19%. For the same molecule, the half-life at 1 μM in data set [1] is 1.25 h.
Turning to `COc1cc(/C=C/C(F)(F)F)ccc1C(=O)Nc1ccc2c(c1)OCCO2` [Compound 123], the inhibition at 0.3 µM on VR1 was found to be 19%. Besides, the half-life at 1 μM in data set [1] is 1.88 h.
The like results for `Cc1cc(C#CC2CC2)ccc1C(=O)Nc1ccc2c(c1)OCC(CO)N2` (centres unmarked) [Compound 124] were, in that order, 112% and 1.01 h.
On to `Cc1cc(C#CC2CCCC2)ccc1C(=O)Nc1ccc2c(c1)OCC(CO)N2` (centres unmarked) [Compound 125], for which the inhibition at 0.3 µM at VR1 is 112%. The molecule also gave a half-life at 1 μM in data set [1] of 0.67 h.
On the same counts, the results for `O=C(Nc1ccc2c(c1)OCC(CO)N2)c1ccc(C#CC2CCCC2)cc1F` (centres unmarked) [Compound 126] are 96% and 1.86 h.
For `O=C(Nc1ccc2c(c1)OCC(CO)N2)c1c(F)cc(C#CC2CC2)cc1F` (centres unmarked) [Compound 129], at VR1, the inhibition at 0.3 µM was 104%. For the same molecule, the half-life at 1 μM in data set [1] was 1.72 h.
On the same counts, the results for `Cc1cc(/C=C/C(F)(F)F)ccc1C(=O)Nc1ccc2c(c1)OCC(CO)N2` (centres unmarked) [Compound 131] are 104% and 1.97 h.
On the same counts, the results for `O=C(Nc1ccc2c(c1)OCCN2)c1ccc(/C=C/C(F)(F)F)cc1F` [Compound 134] are 108% and 1.56 h.
The like results for `O=C(Nc1ccc2c(c1)OCC(CO)N2)c1ccc(/C=C/C(F)(F)F)cc1F` (centres unmarked) [Compound 144] were, in that order, 105% and 1.18 h.
Consider `O=C(Nc1ccc2c(c1)OCC(CO)N2)c1ccc(/C=C/C(F)(F)F)cc1Cl` (centres unmarked) [Compound 157], for which the inhibition at 0.3 µM at VR1 turned out to be 107%. The same molecule had a half-life at 1 μM in data set [1] of 1.37 h.
As to `CC(C)(C)C#Cc1ccc(C(=O)Nc2ccc3c(c2)OCC(CO)N3)c(Cl)c1` (centres unmarked) [Compound 158], the inhibition at 0.3 µM on VR1 was 107%. The molecule further gave a half-life at 1 μM in data set [1] of 1.43 h.
In the case of `O=C(Nc1cccc2cnccc12)c1ccc(/C=C/C(F)(F)F)cc1F` [Compound 160], the inhibition at 0.3 µM on VR1 stood at 96%. In data set [1], this molecule gave a half-life at 1 μM of 0.58 h.
The like results for `Cc1nc2cc(NC(=O)c3ccc(C#CC(C)(C)C)cc3C)ccc2s1` [Compound 162] were, in that order, 89% and 1.43 h.

Source of the values: patent US20080300243A1, “Amide Derivatives as Ion-Channel Ligands and Pharmaceutical Compositions and Methods of Using the Same” (priority 2005, published 2008).
